According to patent US6057441A, “Substituted tetracyclic tetrahydrofuran derivatives” (Janssen Pharmaceutica, N.V., priority 1996, dated 2000):
Counter-ions that a name gives are not always drawn.

Key:
[1] = dose of 300 mg/kg; cited from earlier work
[2] = test system: mCPP (metachlorophenylpiperazine) induced effects; assay: mCPP Test on Rats; type: in vivo, rat; conditions: pre-test time T of 1 hour, 1 mg/kg mCPP intravenously 15 minutes prior to the test, Open Field Test; for ED40: Rattus norvegicus, iv, read-out: active dose (dose at which 40% of the tested rats showed suppression of the mCPP induced effects, i.e. mCPP-antagonism)
Description: Rats were treated with the test compound at a dose varying between 0.0025 mg/kg and 40 mg/kg body weight at a pre-test time T of 1 hour, and with 1 mg/kg mCPP (metachlorophenylpiperazine), injected intravenously, 15 minutes prior to the test. After pre-test time T elapsed, treated rats were submitted to the "Open Field Test on Rats" as described in Drug. Dev. Res. 18, 119-144 (1989), but using an infra-red light source instead of a Kleverlux® (12 V/20 W) light source. […] Compounds number 1, 2, 4 and 9 were active at a test dose of 2.5 mg/kg or less.

5-HT2C receptor = biological target: T1, 5-HT2C receptor (Sus scrofa, UniProt K7GSR7); assay: In vitro radioligand binding affinity for 5-HT2C receptor (3H-mesulergine, choroid plexus); conditions: test concentration of 10^-7 M, choroid plexus of the pig
T1 construct: the tissue used is the choroid plexus of the pig; from tissue; host or cells: pig choroid plexus
T1 sequence (K7GSR7 1-457): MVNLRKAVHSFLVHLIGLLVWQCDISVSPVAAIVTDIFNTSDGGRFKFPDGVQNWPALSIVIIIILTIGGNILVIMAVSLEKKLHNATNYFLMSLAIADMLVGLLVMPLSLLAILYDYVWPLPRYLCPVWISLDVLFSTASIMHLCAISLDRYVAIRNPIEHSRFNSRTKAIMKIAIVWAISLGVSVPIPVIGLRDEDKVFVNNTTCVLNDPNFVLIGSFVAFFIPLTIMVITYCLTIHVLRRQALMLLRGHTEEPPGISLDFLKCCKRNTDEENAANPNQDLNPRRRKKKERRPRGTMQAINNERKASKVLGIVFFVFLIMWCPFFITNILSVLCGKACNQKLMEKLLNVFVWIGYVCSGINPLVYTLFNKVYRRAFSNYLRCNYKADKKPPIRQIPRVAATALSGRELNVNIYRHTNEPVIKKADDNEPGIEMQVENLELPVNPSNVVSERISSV
Description: (§1) The interaction of the compounds of formula (I) with 5-HT2A and 5-HT2C receptors was assessed in in vitro radioligand binding experiments. In general, a low concentration of a radioligand with a high binding affinity for the receptor is incubated with a sample of a tissue preparation enriched in a particular receptor (1 to 5 mg tissue) in a buffered medium (0.2 to 5 ml). During the incubation, the radioligands bind to the receptor. When equilibrium of binding is reached, the receptor bound radioactivity is separated from the non-bound radioactivity, and the receptor bound activity is counted. The interaction of the test compounds with the receptors is assessed in competition binding experiments. Various concentrations of the test compound are added to the incubating mixture containing the tissue preparation and the radioligand. Binding of the radioligand will be inhibited by the test compound in proportion to its binding affinity and its concentration. The radioligand used for 5-HT2A binding affinity is ^3 H-ketanserin and the tissue used is the frontal cortex of the rat. […] The radioligand used for 5-HT2C binding affinity is ^3 H-mesulergine and the tissue used is the choroid plexus of the pig.

5-HT2A receptor = biological target: T2, 5-HT2A receptor (Rattus norvegicus, UniProt P14842); assay: In vitro radioligand binding affinity for 5-HT2A receptor (3H-ketanserin, frontal cortex); conditions: test concentration of 10^-7 M, frontal cortex of the rat
T2 construct: the tissue used is the frontal cortex of the rat; from tissue; host or cells: rat frontal cortex
T2 sequence (P14842 whole entry): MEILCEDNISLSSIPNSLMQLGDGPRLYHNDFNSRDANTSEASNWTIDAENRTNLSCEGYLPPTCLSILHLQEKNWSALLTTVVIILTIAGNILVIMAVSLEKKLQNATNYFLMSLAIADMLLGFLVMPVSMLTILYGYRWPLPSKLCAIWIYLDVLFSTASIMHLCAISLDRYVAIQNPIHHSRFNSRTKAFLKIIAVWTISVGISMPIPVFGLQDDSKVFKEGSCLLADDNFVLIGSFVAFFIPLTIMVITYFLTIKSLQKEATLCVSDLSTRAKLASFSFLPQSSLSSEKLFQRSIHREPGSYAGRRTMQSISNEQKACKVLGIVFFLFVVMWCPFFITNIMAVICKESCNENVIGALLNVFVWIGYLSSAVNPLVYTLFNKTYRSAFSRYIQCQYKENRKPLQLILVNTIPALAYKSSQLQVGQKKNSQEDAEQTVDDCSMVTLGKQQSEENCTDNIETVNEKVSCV
Description: as §1

In the case of `CNCC1CC2c3ccccc3Cc3ccccc3C2O1.O=C(O)C(=O)O` (racemic) [(±)-3,3a,8,12b-tetrahydro-N-methyl-2H-dibenzo[3,4:6,7]-cyclohepta[1,2-b]furan-2-methanamine oxalic acid], the antidepressant activity [1] is given as “inactive”.

In the case of `CN(C)CC1CC2c3ccccc3Oc3ccccc3C2O1` (racemic) [Compound 1, (±)-2,3,3a,12b-tetrahydro-N,N-dimethyldibenzo[bf]furo[2,3-d]oxepin-2-methanamine], the ED40 [2] is reported as ≤ 2.5 mg/kg and the inhibition at 0.1 µM (5-HT2C receptor) is reported as > 40%.

In the case of `OCCN1CCN(CC2CC3c4ccccc4Cc4ccccc4C3O2)CC1` (racemic) [Compound 3, (±)-4-[(3,3a,8,12b-tetrahydro-2H-dibenzo[3,4:6,7]cyclohepta[1,2-b]furan-2-yl)methyl]-1-piperazineethanol dihydrochloride], the inhibition at 0.1 µM (5-HT2A receptor) is reported as > 40% and the inhibition at 0.1 µM (5-HT2C receptor) is reported as > 40%.

For `CN(C)CC1CC2c3ccccc3Cc3ccccc3C2O1.Cl` (racemic) [Compound 4, (±)-3,3a,8,12b-tetrahydro-N,N-dimethyl-2H-dibenzo[3,4:6,7]cyclohepta[1,2-b]furan-2-methanamine hydrochloride (1:1)], the ED40 [2] was ≤ 2.5 mg/kg, the inhibition at 0.1 µM (5-HT2A receptor) was > 40% and the inhibition at 0.1 µM (5-HT2C receptor) was > 40%.

In the case of `CN(C)CC1CC2c3ccccc3Oc3ccccc3C2O1` (stereo not shown) [Compound 2], the “active dose (dose at which 40% of the tested rats showed suppression of the mCPP induced effects, i.e. mCPP-antagonism)” value [2] is reported as ≤ 2.5 mg/kg and the “inhibition of the 5-HT2C receptor” value (5-HT2C receptor) is reported as “less than 40%”.

In the case of `CN1CCN(CC2CC3c4ccccc4Cc4ccccc4C3O2)CC1` (stereo not shown) [Compound 5], the inhibition at 0.1 µM (5-HT2A receptor) is reported as > 40% and the inhibition at 0.1 µM (5-HT2C receptor) is reported as > 40%.

For `Clc1cccc(N2CCN(CC3CC4c5ccccc5Cc5ccccc5C4O3)CC2)c1` (stereo not shown) [Compound 6], the inhibition at 0.1 µM (5-HT2C receptor) was > 40%.

For `c1ccc(C2CCN(CC3CC4c5ccccc5Cc5ccccc5C4O3)CC2)cc1` (stereo not shown) [Compound 7], the inhibition at 0.1 µM (5-HT2C receptor) was > 40%.

With `O=C(c1ccc(F)cc1)C1CCN(CC2CC3c4ccccc4Cc4ccccc4C3O2)CC1` (stereo not shown) [Compound 8] the inhibition at 0.1 µM (5-HT2A receptor) was > 40% and the inhibition at 0.1 µM (5-HT2C receptor) was > 40%.

For `c1ccc2c(c1)Cc1ccccc1C1OC(CN3CCOCC3)CC21` (stereo not shown) [Compound 9], the ED40 [2] was ≤ 2.5 mg/kg, the inhibition at 0.1 µM (5-HT2A receptor) was > 40% and the inhibition at 0.1 µM (5-HT2C receptor) was > 40%.
